# Data: PubChem BioAssay AID1745844 (Carcinogenic Potency Database (CPDB), 2022)
# The source made the active and inactive calls. How the calls were made is not given here. Numbered stars: 1 amine (or outer) side, 2 acyl side, 3 side chain; on linkers, the order of the positions; unused ones are H or OH. Bridge positions count the residues as written; N and C are the ends. Square brackets hold non-standard residues; d marks the D form. Peptide text beside a SMILES is read from it. I, II: the chains in the order shown. Actinocin(1to9) = Cc1c2oc3c(C)ccc(C(=O)[*:2])c3nc-2c(C(=O)[*:1])c(N)c1=O; NMeV = CN[C@H](C(=O)O)C(C)C; Sar = CNCC(=O)O
# System: rodent lifetime carcinogenesis bioassay, tumor incidence TD50
# Assay: chronic cancer bioassays in animals – CPDB, compiled studies (AID 1745844)
smiles,measurement,setting,value
CCCCCC,TD50,"mouse, strain B6C3F1, females, inhaled, site: liver, lesion: hepatocellular carcinoma, dosed 105 weeks, study length 105 weeks",84800 mg/kg/day
same,TD50,"mouse, strain B6C3F1, females, inhaled, site: liver, lesion: several types, types named in the paper, dosed 105 weeks, study length 105 weeks",30300 mg/kg/day
same,TD50,"mouse, strain B6C3F1, females, inhaled, site: pituitary gland, lesion: adenoma, dosed 105 weeks, study length 105 weeks",10300 mg/kg/day
same,TD50,"mouse, strain B6C3F1, females, inhaled, site: pituitary gland, lesion: several types, types named in the paper, dosed 105 weeks, study length 105 weeks",9460 mg/kg/day
same,carcinogen call,"mouse, strain B6C3F1, males, inhaled, site: liver, lesion: several types, types named in the paper, dosed 105 weeks, study length 105 weeks",negative (inactive)
same,carcinogen call,"rat, strain Fischer 344, females, inhaled, site: nasal mucosa, lesion: one or several types, types not named, dosed 105 weeks, study length 105 weeks",negative (inactive)
same,carcinogen call,"rat, strain Fischer 344, males, inhaled, site: nasal mucosa, lesion: one or several types, types not named, dosed 105 weeks, study length 105 weeks",negative (inactive)
COC(=O)NN,carcinogen call,"rat, strain Wistar, females, in feed, site: any site (literature study), lesion: one or several types, types not named, dosed 104 weeks, study length 104 weeks",negative (inactive)
same,carcinogen call,"rat, strain Wistar, males, in feed, site: any site (literature study), lesion: one or several types, types not named, dosed 104 weeks, study length 104 weeks",negative (inactive)
[O]=[Cr](=[O])([OH])[O][Cr](=[O])(=[O])[OH],TD50,"rat, strain Wistar, males, inhaled, site: any site (literature study), lesion: several types, types named in the paper, dosed 78 weeks, study length 130 weeks",0.875 mg/kg/day
same,TD50,"rat, strain Wistar, males, inhaled, site: liver, lesion: malignant tumor, dosed 78 weeks, study length 130 weeks",14.4 mg/kg/day
same,TD50,"rat, strain Wistar, males, inhaled, site: lung, lesion: adenocarcinoma, dosed 78 weeks, study length 130 weeks",7.07 mg/kg/day
same,TD50,"rat, strain Wistar, males, inhaled, site: lung, lesion: adenoma, dosed 78 weeks, study length 130 weeks",14.4 mg/kg/day
same,TD50,"rat, strain Wistar, males, inhaled, site: lung, lesion: several types, types named in the paper, dosed 78 weeks, study length 130 weeks",4.64 mg/kg/day
same,TD50,"rat, strain Wistar, males, inhaled, site: pharynx, lesion: squamous-cell carcinoma, dosed 78 weeks, study length 130 weeks",14.4 mg/kg/day
Cc1cc(=O)[nH]c(=S)[nH]1,TD50,"hamster, strain Not specified, females, in drinking water, site: thyroid gland, lesion: several types, types named in the paper, dosed 52 weeks, study length 52 weeks",53.4 mg/kg/day
same,TD50,"mouse, strain C3H/FIB, both sexes, in feed, site: liver, lesion: hepatoma, dosed 51 weeks, study length 78 weeks",1370 mg/kg/day
"CC[C@H](C)[C@@H]1NC(=O)[C@@H](NC(=O)c2c3nc4c(C(=O)N[C@@H]5C(=O)N[C@@H](C(C)C)C(=O)N6CCC[C@H]6C(=O)N(C)CC(=O)N(C)[C@@H](C(C)C)C(=O)O[C@@H]5C)ccc(C)c4oc-3c(C)c(=O)c2N)[C@@H](C)OC(=O)[C@H](C(C)C)N(C)C(=O)CN(C)C(=O)[C@@H]2CCCN2C1=O (I: TIP[Sar][NMeV] / II: TVP[Sar][NMeV]; ester I:1-I:C, II:1-II:C; linker I:N-II:N via Actinocin(1to9))",TD50,"rat, strain BR 46, males, i.v., site: any site (literature study), lesion: benign tumor, dosed 52 weeks, study length 104 weeks",2.23 mg/kg/day
same,TD50,"rat, strain BR 46, males, i.v., site: any site (literature study), lesion: malignant tumor, dosed 52 weeks, study length 104 weeks",10.8 mg/kg/day
same,TD50,"rat, strain BR 46, males, i.v., site: any site (literature study), lesion: several types, types named in the paper, dosed 52 weeks, study length 104 weeks",1.68 mg/kg/day
CCCCCCCCCc1ccc(OCCO)cc1,TD50,"mouse, strain B6C3F1, females, in feed, site: liver, lesion: hepatocellular adenoma, dosed 104 weeks, study length 104 weeks",8670 mg/kg/day (inactive)
same,carcinogen call,"mouse, strain B6C3F1, females, in feed, site: liver, lesion: hepatocellular carcinoma, dosed 104 weeks, study length 104 weeks",negative (inactive)
same,carcinogen call,"rat, strain F344/DuCrj, females, in feed, site: liver, lesion: hepatocellular adenoma, dosed 104 weeks, study length 104 weeks",negative (inactive)
same,carcinogen call,"rat, strain F344/DuCrj, females, in feed, site: liver, lesion: one or several types, types not named, dosed 52 weeks, study length 52 weeks",negative (inactive)
CC(C)COC(=O)c1ccc(O)cc1,TD50,"mouse, strain ICR/Jcl, females, in feed, site: any site (literature study), lesion: several types, types named in the paper, dosed 102 weeks, study length 106 weeks",12300 mg/kg/day (inactive)
same,carcinogen call,"mouse, strain ICR/Jcl, females, in feed, site: liver, lesion: one or several types, types not named, dosed 102 weeks, study length 106 weeks",negative (inactive)
same,TD50,"mouse, strain ICR/Jcl, females, in feed, site: lung, lesion: one or several types, types not named, dosed 102 weeks, study length 106 weeks",37200 mg/kg/day (inactive)
same,TD50,"mouse, strain ICR/Jcl, males, in feed, site: any site (literature study), lesion: several types, types named in the paper, dosed 102 weeks, study length 104 weeks",6570 mg/kg/day (inactive)
same,TD50,"mouse, strain ICR/Jcl, males, in feed, site: liver, lesion: one or several types, types not named, dosed 102 weeks, study length 104 weeks",26300 mg/kg/day (inactive)
same,carcinogen call,"mouse, strain ICR/Jcl, males, in feed, site: lung, lesion: one or several types, types not named, dosed 102 weeks, study length 104 weeks",negative (inactive)
CC[C@H]1CN2CCc3cc(OC)c(OC)cc3[C@@H]2C[C@@H]1C[C@H]1NCCc2cc(OC)c(OC)cc21,TD50,"mouse, strain B6C3F1, females, i.p., site: any site (literature study), lesion: several types, types named in the paper, dosed 40 weeks, study length 78 weeks",1.2 mg/kg/day
same,TD50,"mouse, strain B6C3F1, females, i.p., site: lung, lesion: alveolar/bronchiolar adenoma + alveolar/bronchiolar carcinoma, dosed 40 weeks, study length 78 weeks",49.4 mg/kg/day
same,TD50,"mouse, strain B6C3F1, males, i.p., site: any site (literature study), lesion: several types, types named in the paper, dosed 44 weeks, study length 78 weeks",0.552 mg/kg/day
same,TD50,"mouse, strain B6C3F1, males, i.p., site: liver, lesion: hepatocellular adenoma + hepatocellular carcinoma + neoplastic nodule, dosed 44 weeks, study length 78 weeks",1.3 mg/kg/day
same,TD50,"mouse, strain B6C3F1, males, i.p., site: lung, lesion: alveolar/bronchiolar adenoma + alveolar/bronchiolar carcinoma, dosed 44 weeks, study length 78 weeks",1.19 mg/kg/day
same,TD50,"rat, strain Sprague-Dawley, females, i.p., site: any site (literature study), lesion: several types, types named in the paper, dosed 52 weeks, study length 83 weeks",0.235 mg/kg/day
same,TD50,"rat, strain Sprague-Dawley, males, i.p., site: any site (literature study), lesion: several types, types named in the paper, dosed 52 weeks, study length 83 weeks",0.382 mg/kg/day
c1ccc2sc(SNC3CCCCC3)nc2c1,carcinogen call,"mouse, strain B6AKF1, females, oral dosing, site: any site (literature study), lesion: several types, types named in the paper, dosed 76 weeks, study length 76 weeks",negative (inactive)
same,carcinogen call,"mouse, strain B6AKF1, females, oral dosing, site: liver, lesion: hepatoma, dosed 76 weeks, study length 76 weeks",negative (inactive)
same,carcinogen call,"mouse, strain B6AKF1, females, oral dosing, site: lung, lesion: adenoma, dosed 76 weeks, study length 76 weeks",negative (inactive)
same,carcinogen call,"mouse, strain B6AKF1, males, oral dosing, site: any site (literature study), lesion: several types, types named in the paper, dosed 76 weeks, study length 76 weeks",negative (inactive)
same,carcinogen call,"mouse, strain B6AKF1, males, oral dosing, site: liver, lesion: hepatoma, dosed 76 weeks, study length 76 weeks",negative (inactive)
same,carcinogen call,"mouse, strain B6AKF1, males, oral dosing, site: lung, lesion: adenoma, dosed 76 weeks, study length 76 weeks",negative (inactive)
same,TD50,"mouse, strain B6C3F1, females, oral dosing, site: any site (literature study), lesion: several types, types named in the paper, dosed 76 weeks, study length 76 weeks",243 mg/kg/day (inactive)
same,carcinogen call,"mouse, strain B6C3F1, females, oral dosing, site: liver, lesion: hepatoma, dosed 76 weeks, study length 76 weeks",negative (inactive)
same,carcinogen call,"mouse, strain B6C3F1, females, oral dosing, site: lung, lesion: several types, types named in the paper, dosed 76 weeks, study length 76 weeks",negative (inactive)
same,TD50,"mouse, strain B6C3F1, males, oral dosing, site: any site (literature study), lesion: several types, types named in the paper, dosed 76 weeks, study length 76 weeks",50.8 mg/kg/day (inactive)
same,TD50,"mouse, strain B6C3F1, males, oral dosing, site: liver, lesion: hepatoma, dosed 76 weeks, study length 76 weeks",92.7 mg/kg/day (inactive)
same,TD50,"mouse, strain B6C3F1, males, oral dosing, site: lung, lesion: adenoma, dosed 76 weeks, study length 76 weeks",532 mg/kg/day (inactive)
ClCC1CO1 (configuration not stated),TD50,"mouse, strain Ha/ICR, females, i.p., site: lung, lesion: papillary tumor, dosed 64 weeks, study length 64 weeks",28.9 mg/kg/day
same,TD50,"rat, strain Sprague-Dawley, males, inhaled, site: nasal cavity, lesion: squamous-cell carcinoma, dosed 54 weeks, study length 136 weeks",421 mg/kg/day
same,TD50,"rat, strain Wistar, females, by gavage, site: forestomach, lesion: squamous-cell carcinoma, dosed 104 weeks, study length 104 weeks",2.55 mg/kg/day
same,carcinogen call,"rat, strain Wistar, females, by gavage, site: liver, lesion: neoplastic nodule, dosed 104 weeks, study length 104 weeks",negative (inactive)
same,TD50,"rat, strain Wistar, males, by gavage, site: any site (literature study), lesion: several types, types named in the paper, dosed 104 weeks, study length 104 weeks",4.83 mg/kg/day
same,TD50,"rat, strain Wistar, males, by gavage, site: forestomach, lesion: squamous-cell carcinoma, dosed 104 weeks, study length 104 weeks",3.53 mg/kg/day
same,carcinogen call,"rat, strain Wistar, males, by gavage, site: liver, lesion: hepatocellular carcinoma, dosed 104 weeks, study length 104 weeks",negative (inactive)
same,carcinogen call,"rat, strain Wistar, males, by gavage, site: liver, lesion: neoplastic nodule, dosed 104 weeks, study length 104 weeks",negative (inactive)
same,TD50,"rat, strain Wistar, males, by gavage, site: liver, lesion: one or several types, types not named, dosed 104 weeks, study length 104 weeks",218 mg/kg/day (inactive)
NC(=O)N(CCCO)N=O,TD50,"rat, strain Fischer 344, females, by gavage, site: forestomach, lesion: one or several types, types not named, dosed 30 weeks, study length 104 weeks",1.27 mg/kg/day
same,TD50,"rat, strain Fischer 344, females, by gavage, site: liver, lesion: one or several types, types not named, dosed 30 weeks, study length 104 weeks",1.27 mg/kg/day
same,TD50,"rat, strain Fischer 344, males, by gavage, site: forestomach, lesion: one or several types, types not named, dosed 30 weeks, study length 104 weeks",1.98 mg/kg/day
same,TD50,"rat, strain Fischer 344, males, by gavage, site: forestomach, lesion: one or several types, types not named, dosed 40 weeks, study length 104 weeks",0.866 mg/kg/day
same,TD50,"rat, strain Fischer 344, males, by gavage, site: liver, lesion: one or several types, types not named, dosed 30 weeks, study length 104 weeks",3.78 mg/kg/day
same,TD50,"rat, strain Fischer 344, males, by gavage, site: liver, lesion: one or several types, types not named, dosed 40 weeks, study length 104 weeks",1.24 mg/kg/day
same,TD50,"rat, strain Fischer 344, males, by gavage, site: lung, lesion: several types, types named in the paper, dosed 30 weeks, study length 104 weeks",1.79 mg/kg/day
same,TD50,"rat, strain Fischer 344, males, by gavage, site: skin, lesion: several types, types named in the paper, dosed 30 weeks, study length 104 weeks",0.668 mg/kg/day
same,TD50,"rat, strain Fischer 344, males, by gavage, site: stomach, glandular, lesion: one or several types, types not named, dosed 30 weeks, study length 104 weeks",0.888 mg/kg/day
